{RR} = two arginine residues at the PNA terminus
How the values were obtained:
[1] = tested on: U2932 cells; test: Cell viability by trypan blue assay, U2932; assay type: cell-based, human
Protocol: Cell viability was performed using trypan blue-based assay (n=3 technical triplicate), data represented as mean±(SEM), * represents the statistical analysis were performed relative to Scr-γtcPNA-155 and ♦ represent analysis performed relative to PNA-155. *p<0.05, **p<0.01, ***p<0.001 and ****p<0.0001, ♦p<0.05, ♦♦p<0.01, unpaired two-tailed t-test was used for statistical analysis. The experiment was repeated three times and in triplicate.
Cell viability was performed using trypan blue-based assay (n=3), data represented as mean±standard error mean (SEM), *p<0.05, **p<0.01. Unpaired two-tailed t-test was used for statistical analysis.
Cell viability was performed using trypan blue-based assay (n=3), data represented as mean±standard error mean (SEM).
Cell viability by trypan blue assay: Diffused large B cell lymphoma (DLBCL) cell lines like SUDHL-2 (ATCC® CRL-2956™) and SUDHL-5 (ATCC® CRL-2958™) cells were purchased from ATCC (Virginia, USA). The cells were regularly tested for Mycoplasma contamination using MycoAlert™ Mycoplasma detection kit (Lonza). All the cells used in the experiment were passaged less than 8 times. 10,000 U2932, SUDHL-5, or SUDHL-2 cells were plated in a 96 well plate. The cells were treated with different doses (500 nM, 1000 nM, 2000 nM and 4000 nM) of PNA-155, gamma tcPNA-155 or Scr-γtcPNA-155 for 48 hrs in an incubator (37° C. and 5% CO2). The dead cells were marked with trypan blue. Further counting was performed using an automated cell counter (Bio-rad).

[2] = tested on: miR-155; test: miR-155 gene expression by RT-PCR in SUDHL-2 cells; assay type: cell-based; details: SUDHL-2, 500 nM, 48 hours
Protocol: Data represented as mean±standard error mean (SEM). Unpaired two-tailed t-test was used for statistical analysis, **p<0.01. The analysis was performed relative to Scr-γtcPNA-155.
Similarly, 400,000 SUDHL-2 cells were seeded in a 12 well plate and treated with 500 nM Scr gamma tcPNA-155, PNA-155 and gamma tcPNA-155 for 48 hrs in an incubator (37° C. and 5% CO2). The RNA was extracted and the samples for gene expression were prepared in the same manner as described above.

[3] = tested on: miR-155; test: miR-155 gene expression in SUDHL-2 xenograft tumors; design: species or system NSG mice; details: SUDHL-2 xenograft after in vivo treatment
Protocol: Data normalized with average control U6 (n=4) and represented as mean±standard error mean. Unpaired t test was used for statistical analysis. Further statistical analysis was performed relative to Scr-γtcPNA-155. **p<0.01, ***p<0.001.
Further, we corroborated our results in the SUDHL-2 derived xenograft mouse model. We injected the SUDHL-2 cells in the right and left flank of mice. After 14-21 days, when the tumor volume reached 100-200 mm3, the mice were randomized into three treatment groups based on uniform tumor volume distribution in each group. […] (FIG. 27)

Substance	reduction in cell viability at 500 nM ([1]; U2932, 500 nM, compared to PNA-155 treated group)	decrease in cell viability ([1]; U2932, 4UM, 48 hours) [%]	decrease in miR-155 gene expression [2] [%]	miR-155 expression level in tumors [3]
γtcPNA-155: serine gamma tail-clamp anti-miR-155 PNA, RR-TJJJJ-OOO-ACCCCTATCACGATTAGCATTAA-RR, SEQ ID NO: 3 (all peptide nucleic acid (PNA); serine gamma PNA, tail-clamp TJJJJ via linkers, Arg-Arg at both ends)	significant reduction in cell viability	~80	63	
PNA-155: conventional full-length regular PNA (23mer), RR-ACCCCTATCACGATTAGCATTAA-RR, SEQ ID NO: 1 (all peptide nucleic acid (PNA), 5' {RR}, 3' {RR}) [reference compound]				significantly reduces miR-155 expression level

Source: patent publication US20260092085A1, “SYNTHETIC TRIPLEX PEPTIDE NUCLEIC ACID-BASED INHIBITORS FOR CANCER THERAPY” (University of Connecticut, priority 2022, published 2026)
